For 33 compounds, IC50 results are on record in patent publication US20240228482A1, “COMPOUNDS, COMPOSITIONS AND METHODS OF TREATING CANCER” (HOTSPOT THERAPEUTICS, INC., priority 2021, published 2024).

T1 sequence (Q13191 whole entry): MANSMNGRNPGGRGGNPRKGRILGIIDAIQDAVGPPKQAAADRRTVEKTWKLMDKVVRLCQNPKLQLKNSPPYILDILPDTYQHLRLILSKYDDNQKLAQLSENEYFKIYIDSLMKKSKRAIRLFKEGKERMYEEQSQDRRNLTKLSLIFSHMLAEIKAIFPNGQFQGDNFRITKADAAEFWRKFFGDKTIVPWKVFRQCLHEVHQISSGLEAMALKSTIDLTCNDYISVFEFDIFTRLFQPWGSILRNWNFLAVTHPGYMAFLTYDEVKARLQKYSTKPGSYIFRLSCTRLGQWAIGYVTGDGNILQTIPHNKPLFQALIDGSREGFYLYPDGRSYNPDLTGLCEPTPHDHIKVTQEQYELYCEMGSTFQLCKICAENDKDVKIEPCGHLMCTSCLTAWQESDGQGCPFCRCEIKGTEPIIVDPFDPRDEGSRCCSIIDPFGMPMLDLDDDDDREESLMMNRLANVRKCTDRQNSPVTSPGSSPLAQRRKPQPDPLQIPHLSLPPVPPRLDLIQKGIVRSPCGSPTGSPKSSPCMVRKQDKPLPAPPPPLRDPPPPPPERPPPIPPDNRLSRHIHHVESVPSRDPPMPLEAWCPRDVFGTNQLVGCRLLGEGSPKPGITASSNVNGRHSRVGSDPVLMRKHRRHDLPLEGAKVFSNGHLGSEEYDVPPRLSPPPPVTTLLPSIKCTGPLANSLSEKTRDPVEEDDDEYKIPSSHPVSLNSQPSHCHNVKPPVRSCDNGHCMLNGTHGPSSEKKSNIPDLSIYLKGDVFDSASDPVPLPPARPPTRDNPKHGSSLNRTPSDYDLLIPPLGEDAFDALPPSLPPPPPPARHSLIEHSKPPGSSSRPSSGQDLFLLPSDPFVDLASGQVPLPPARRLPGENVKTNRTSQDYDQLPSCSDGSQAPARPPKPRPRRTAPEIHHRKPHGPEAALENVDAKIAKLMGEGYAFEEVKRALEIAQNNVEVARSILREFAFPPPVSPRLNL

This experiment concerns the target T1, CBL-B (Homo sapiens, UniProt Q13191).
T1 construct: GST
The experiment can be described thus: CBL-B TR-FRET IC50 screening (E1/E2 ubiquitination, Biotin-Ubiquitin, Anti GST-Tb donor / Streptavidin-d2 acceptor). It is filed as biochemical. Particulars: second part of Table 2 (head 'Patent Cmpd No / Updated Activity'); same CBL-B TR-FRET IC50 bins A-F; read-out: Updated Activity. (TR-FRET usually uses a lanthanide donor and a delayed reading to cut background.)
Take `CC(=O)NCc1cc([C@@H](c2nncn2C)C2CCC2)cc(-n2cc3c(C(F)(F)F)cccn3c2=O)c1` (single isomer, unassigned) [Compound 478]: the IC50 was more than 10000 nM.

`CC(=O)NCc1cc([C@H](c2nncn2C)C2CCC2)cc(-n2cc3c(C(F)(F)F)cccn3c2=O)c1` (single isomer, unassigned) [Compound 479]: the IC50 fell in the range of 3000 to 10000 nM.

Consider `Cn1cnnc1C1(c2cccc(-n3cc4c(C(F)(F)F)cc(CN5CCC[C@H](C(F)(F)F)C5)cn4c3=O)c2)CC2(CC2)C1` (single isomer, unassigned) [Compound 480], for which the IC50 was less than 100 nM.

For the compound `Cn1cnnc1C1(c2cccc(-n3cc4c(C(F)(F)F)cc(CN5CCC[C@@H](C(F)(F)F)C5)cn4c3=O)c2)CC2(CC2)C1` (single isomer, unassigned) [Compound 481], the IC50 was less than 100 nM.

In the case of `C[C@H](c1cc(C(F)(F)F)c2cn(-c3cccc([C@H](c4nncn4C)C4CCC4)c3)c(=O)n2c1)N1CC[C@H](F)C1` (single isomer, unassigned) [Compound 485], the IC50 is less than 100 nM.

For the compound `C[C@@H](c1cc(C(F)(F)F)c2cn(-c3cccc([C@H](c4nncn4C)C4CCC4)c3)c(=O)n2c1)N1CC[C@H](F)C1` (single isomer, unassigned) [Compound 486], the IC50 is less than 100 nM.

Regarding `COC[C@H]1C[C@@H]([C@@H](c2cccc(-n3cc4c(C(F)(F)F)cc(CN5CCC[C@H](C)C5)cn4c3=O)c2)c2nncn2C)C1` (single isomer, unassigned) [Compound 492], the IC50 is more than 10000 nM.

With `COC[C@H]1C[C@H]([C@H](c2cccc(-n3cc4c(C(F)(F)F)cc(CN5CCC[C@H](C)C5)cn4c3=O)c2)c2nncn2C)C1` (single isomer, unassigned) [Compound 493], the IC50 was more than 10000 nM.

Regarding `COC[C@H]1C[C@H]([C@@H](c2cccc(-n3cc4c(C(F)(F)F)cc(CN5CCC[C@H](C)C5)cn4c3=O)c2)c2nncn2C)C1` (single isomer, unassigned) [Compound 494], the IC50 is less than 100 nM.

Take `COC[C@H]1C[C@@H]([C@H](c2cccc(-n3cc4c(C(F)(F)F)cc(CN5CCC[C@H](C)C5)cn4c3=O)c2)c2nncn2C)C1` (single isomer, unassigned) [Compound 495]: the IC50 lay within 100 to 300 nM.

In the case of `Cn1cnnc1[C@@H](c1cc(C#N)cc(-n2cc3c(C(F)(F)F)cc(CN4CCC5(CC5)C4)cn3c2=O)c1)C1CCC1` (single isomer, unassigned) [Compound 496], the IC50 was more than 10000 nM.

In the case of `Cn1cnnc1[C@H](c1cc(C#N)cc(-n2cc3c(C(F)(F)F)cc(CN4CCC5(CC5)C4)cn3c2=O)c1)C1CCC1` (single isomer, unassigned) [Compound 497], the IC50 was less than 100 nM.

Turning to `C[C@H](c1cc(C(F)(F)F)c2cn(-c3cccc([C@H](c4nncn4C)C4CCC4)c3)c(=O)n2c1)N1CC[C@@H](F)C1` (single isomer, unassigned) [Compound 500], the IC50 is less than 100 nM.

`C[C@@H](c1cc(C(F)(F)F)c2cn(-c3cccc([C@H](c4nncn4C)C4CCC4)c3)c(=O)n2c1)N1CC[C@@H](F)C1` (single isomer, unassigned) [Compound 501]: the IC50 was less than 100 nM.

For the compound `Cn1cnnc1[C@@H](c1cc(C#N)cc(-n2cc3c(C(F)(F)F)cc(CN4CCC(C)(F)CC4)cn3c2=O)c1)C1CCC1` (single isomer, unassigned) [Compound 508], the IC50 is less than 100 nM.

For the compound `C[C@@H]1CN(Cc2cc(C(F)(F)F)c3cn(-c4cc(C#N)cc([C@H](c5nncn5C)C5CCC5)c4)c(=O)n3c2)CCO1` (single isomer, unassigned) [Compound 509], the IC50 is less than 100 nM.

Consider `Cn1cnnc1[C@@H](c1cc(F)cc(-n2cc3c(C(F)(F)F)cc(CN4CCC5(CC5)C4)cn3c2=O)c1)C1CCC1` (single isomer, unassigned) [Compound 510], for which the IC50 lay in the range of 301 to 1000 nM.

In the case of `C[C@@H]1CN(Cc2cc(C(F)(F)F)c3cn(-c4cc(F)cc([C@H](c5nncn5C)C5CCC5)c4)c(=O)n3c2)CCO1` (single isomer, unassigned) [Compound 511], the IC50 is more than 10000 nM.

Turning to `CC(=O)N(C)Cc1cc([C@@H](c2nncn2C)C2CCC2)cc(-n2cc3c(C(F)(F)F)cccn3c2=O)c1` (single isomer, unassigned) [Compound 512], the IC50 is more than 10000 nM.

As for `CC(=O)N(C)Cc1cc([C@H](c2nncn2C)C2CCC2)cc(-n2cc3c(C(F)(F)F)cccn3c2=O)c1` (single isomer, unassigned) [Compound 513], the IC50 is more than 10000 nM.

`Cn1cnnc1[C@H](c1cc(F)cc(-n2cc3c(C(F)(F)F)cc(CN4CCC5(CC5)C4)cn3c2=O)c1)C1CCC1` (single isomer, unassigned) [Compound 514]: the IC50 was less than 100 nM.

Regarding `C[C@@H]1CN(Cc2cc(C(F)(F)F)c3cn(-c4cc(F)cc([C@@H](c5nncn5C)C5CCC5)c4)c(=O)n3c2)CCO1` (single isomer, unassigned) [Compound 515], the IC50 is more than 10000 nM.

`Cn1cnnc1[C@H](c1cc(C#N)cc(-n2cc3c(C(F)(F)F)cc(CN4CCC(C)(F)CC4)cn3c2=O)c1)C1CCC1` (single isomer, unassigned) [Compound 516]: the IC50 was more than 10000 nM.

With `C[C@@H]1CN(Cc2cc(C(F)(F)F)c3cn(-c4cc(C#N)cc([C@@H](c5nncn5C)C5CCC5)c4)c(=O)n3c2)CCO1` (single isomer, unassigned) [Compound 517], the IC50 was more than 10000 nM.

Take `COCCO[C@H]1CCCN(Cc2cc(C(F)(F)F)c3cn(-c4cccc([C@H](c5nncn5C)C5CCC5)c4)c(=O)n3c2)C1` (single isomer, unassigned) [Compound 518]: the IC50 was less than 100 nM.

As to `COCCO[C@@H]1CCCN(Cc2cc(C(F)(F)F)c3cn(-c4cccc([C@H](c5nncn5C)C5CCC5)c4)c(=O)n3c2)C1` (single isomer, unassigned) [Compound 519], the IC50 is less than 100 nM.

On to `CO[C@]1(C)C[C@H]([C@H](c2cccc(-n3cc4c(C(F)(F)F)cc(CN5CCC[C@H](C)C5)cn4c3=O)c2)c2nncn2C)C1` (single isomer, unassigned) [Compound 529], for which the IC50 is more than 10000 nM.

As for `CO[C@]1(C)C[C@H]([C@@H](c2cccc(-n3cc4c(C(F)(F)F)cc(CN5CCC[C@H](C)C5)cn4c3=O)c2)c2nncn2C)C1` (single isomer, unassigned) [Compound 530], the IC50 was more than 10000 nM.

For `Cn1cnnc1[C@H](c1cc(-c2nnnn2C)cc(-n2cc3c(C(F)(F)F)cccn3c2=O)c1)C1CCC1` (single isomer, unassigned) [Compound 531], the IC50 is 301 to 1000 nM.

In the case of `Cn1cnnc1[C@@H](c1cc(-c2nnnn2C)cc(-n2cc3c(C(F)(F)F)cccn3c2=O)c1)C1CCC1` (single isomer, unassigned) [Compound 532], the IC50 is more than 10000 nM.

Regarding `Cn1cnnc1[C@@H](c1cc(F)cc(-n2cc3c(C(F)(F)F)cc(CN4CC5(CC5)C4)cn3c2=O)c1)C1CCC1` (single isomer, unassigned) [Compound 533], the IC50 is 1000 to 3000 nM.

On to `Cn1cnnc1[C@@H](c1cc(F)cc(-n2cc3c(C(F)(F)F)cc(CN4CCC(C)(F)CC4)cn3c2=O)c1)C1CCC1` (single isomer, unassigned) [Compound 534], for which the IC50 is less than 100 nM.

With `CNC(=O)Cc1cc([C@@H](c2nncn2C)C2CCC2)cc(-n2cc3c(C(F)(F)F)cccn3c2=O)c1` (single isomer, unassigned) [Compound 537], the IC50 is more than 10000 nM.
